Literature values as cited in patent publication US11877998B2, “Supplement composition” (H & H SCIENCE, LLC, priority 2017, dated 2024).

How the values were obtained:
[1] = tested on: retinol-binding proteins (RBPs); conditions: acne patients, oral, after four weeks
hair growth = conditions: men taking supplements
nonmelanoma skin cancer = conditions: oral, high risk group

Compound	serum levels of retinol-binding proteins (RBPs) [1]	further results
[Zn] [zinc]	not observed	–
vitamin A [oral vitamin A]	not observed	–
vitamin E	–	hair growth versus placebo (hair growth): grew more hair
O=C(O)c1cccnc1 [oral niacin, niacin]	–	reduction of nonmelanoma skin cancer (nonmelanoma skin cancer): by a quarter
